tested on: spinal nerve ligation (SNL) rats; experiment: In vivo pain model: spinal nerve ligation (SNL), 50% withdrawal threshold with von Frey filaments; conditions: intraperitoneal dose of approximately 30 mg/kg
Description: Male Sprague-Dawley rats (120–180 g, Harlan, Indianapolis, Ind.) are pre-screened to determine their baseline 50% withdrawal threshold using a set of von Frey filaments. The 50% withdrawal threshold for mechanical stimulation to the hind paw is determined by the up-down method described by Dixon W. J., Ann.
An abrupt withdrawal of the foot during stimulation or immediately after the removal of stimulus is considered a positive response.
Whenever there is a positive or negative response, the next weaker or stronger filament is applied, respectively. The test is continued until six stimuli after the first change in response has been obtained. […] In the cases where continuous positive or negative responses are observed all the way out to the end of the stimulus spectrum, values of 0.3 g or 15.0 g are assigned, respectively.
After pre-screening, rats which display a 50% withdrawal threshold greater than 8 g are acceptable for surgery. The spinal nerve ligation (SNL) surgery is carried out as follows. Rats are anesthetized with inhaled Isoflurance and the left L5 and L6 spinal nerves are tightly ligated with 6-0 silk thread. Postoperatively, rats are placed under a heat lamp until motor function returns and then single-housed. At 5–7 days post surgery, rats are re-tested to determine their post-surgery 50% withdrawal threshold. Rats which consistently display (2 or more days) a 50% withdrawal threshold less than 4.5 g are considered acceptable for compound investigation.
Compounds are formulated in saline for injection and pH adjusted with dilute sodium hydroxide. Groups sizes are normally 5 or 6 rats. […] At 1, 3, and 6 hours post administration, the 50% withdrawal threshold is determined by an investigator who is blinded to the treatment groups. If at 6 hours, some prolonged activity is present, i.e., 50% withdrawal thresholds greater than 8 g, then later timepoints may be attempted (normally at 12 and 24 hours). Compounds can also be administered orally to determine oral activity.

| SMILES | effectiveness for treating pain / activity in the in vivo pain model |
| --- | --- |
| Cc1cccc(C)c1OCC(COc1c(C)cccc1C)NCCc1ccncc1 [Compound 79] | not active |
| Cc1ccccc1OCC(C)(N)COc1ccccc1C [Compound 1] | demonstrated effectiveness for treating pain |
| Cc1cccc(C)c1OCC(N)COc1c(F)cc(F)cc1F (stereo not drawn) [Compound 11] | some activity |
| Cc1ccccc1OCC(N)COc1ccccc1C [Compound 8] | not active |
| Cc1cccc(Cl)c1OCC(C)(N)COc1c(C)cccc1Cl [Compound 5] | some activity |
| CC(N)(COc1c(F)cc(F)cc1F)COc1c(F)cc(F)cc1F [Compound 6] | not active |

Reference: patent US7132422B2, “Sodium channel modulators” (Theravance, Inc., priority 2001, dated 2006)
